Source: PMC8534050, “Discovery of a Potent and Highly Isoform-Selective Inhibitor of the Neglected Ribosomal Protein S6 Kinase Beta 2 (S6K2)” (Cancers, 2021)

Columns and labels:
Assay in all cases: DSF thermal shift assay
Format in all cases: binding
SLK = target: T1, SLK (Homo sapiens, UniProt Q9H2G2); conditions: SLK; inhibitor 10 μM, protein 2 μM; read-out: ΔTm
T1 construct: purchased in-house DSF (thermal shift) panel per Fedorov et al
Protocol: (§1) Differences in the melting temperature (ΔTm) were measured as described by Fedorov et al.. Purified proteins were buffered in 25 mM HEPES (pH 7.5), 500 mM NaCl and were assayed in a 384-well plate with a final protein concentration of 2 μM in 10 μL assay volume. Inhibitors were added to a final concentration of 10 μM using an ECHO 550 acoustic dispenser (Labcyte, San José, CA, USA). As a fluorescence probe, SYPRO-Orange (Molecular Probes, Eugene, OR, USA) was added in a 1:5000 dilution. Filters for excitation and emission were set to 465 nm and 590 nm, respectively. The temperature was increased from 25 °C with 3 °C/min to a final temperature of 95 °C, while scanning, using the QuantStudio5 (Applied Biosystems, Waltham, MA, USA). Data were analyzed through Boltzmann equation in the Protein Thermal Shift software (Applied Biosystems, Waltham, MA, USA). Samples were measured in technical duplicates.

DCAMKL1 = target: T2, DCAMKL1 (Homo sapiens, UniProt O15075); conditions: DCAMKL1; inhibitor 10 μM, protein 2 μM; read-out: ΔTm
T2 construct: purchased in-house DSF (thermal shift) panel per Fedorov et al
Protocol: as §1

MAPK6 = target: T3, MAPK6 (Homo sapiens, UniProt Q16659); conditions: MAPK6; inhibitor 10 μM, protein 2 μM; read-out: ΔTm
T3 construct: purchased in-house DSF (thermal shift) panel per Fedorov et al
Protocol: as §1

PAK1 = target: T4, PAK1 (Homo sapiens, UniProt Q13153); conditions: PAK1; inhibitor 10 μM, protein 2 μM; read-out: ΔTm
T4 construct: purchased in-house DSF (thermal shift) panel per Fedorov et al
Protocol: as §1

CAMKK2 = target: T5, CAMKK2 (Homo sapiens, UniProt Q96RR4); conditions: CAMKK2; inhibitor 10 μM, protein 2 μM; read-out: ΔTm
T5 construct: purchased in-house DSF (thermal shift) panel per Fedorov et al
Protocol: as §1

RPS6K5 = target: T6, RPS6K5 (Homo sapiens, UniProt O75582); conditions: RPS6K5; inhibitor 10 μM, protein 2 μM; read-out: ΔTm
T6 construct: purchased in-house DSF (thermal shift) panel per Fedorov et al
Protocol: as §1

OSR1 = target: T7, OSR1 (Homo sapiens, UniProt O95747); conditions: OSR1; inhibitor 10 μM, protein 2 μM; read-out: ΔTm
T7 construct: purchased in-house DSF (thermal shift) panel per Fedorov et al
Protocol: as §1

EPHB3 = target: T8, EPHB3 (Homo sapiens, UniProt P54753); conditions: EPHB3; inhibitor 10 μM, protein 2 μM; read-out: ΔTm
T8 construct: purchased in-house DSF (thermal shift) panel per Fedorov et al
Protocol: as §1

PLK4 = target: T9, PLK4 (Homo sapiens, UniProt O00444); conditions: PLK4; inhibitor 10 μM, protein 2 μM; read-out: ΔTm
T9 construct: purchased in-house DSF (thermal shift) panel per Fedorov et al
Protocol: as §1

NEK2 = target: T10, NEK2 (Homo sapiens, UniProt P51955); conditions: NEK2; inhibitor 10 μM, protein 2 μM; read-out: ΔTm
T10 construct: purchased in-house DSF (thermal shift) panel per Fedorov et al
Protocol: as §1

CAMK4 = target: T11, CAMK4 (Homo sapiens, UniProt Q16566); conditions: CAMK4; inhibitor 10 μM, protein 2 μM; read-out: ΔTm
T11 construct: purchased in-house DSF (thermal shift) panel per Fedorov et al
Protocol: as §1

STK39 = target: T12, STK39 (Homo sapiens, UniProt Q9UEW8); conditions: STK39; inhibitor 10 μM, protein 2 μM; read-out: ΔTm
T12 construct: purchased in-house DSF (thermal shift) panel per Fedorov et al; IC50 follow-up at Reaction Biology Corp
Protocol: as §1

MAPK13 = target: T13, MAPK13 (Homo sapiens, UniProt O15264); conditions: MAPK13; inhibitor 10 μM, protein 2 μM; read-out: ΔTm
T13 construct: purchased in-house DSF (thermal shift) panel per Fedorov et al
Protocol: as §1

CDC42BPA = target: T14, CDC42BPA (Homo sapiens, UniProt Q5VT25); conditions: CDC42BPA; inhibitor 10 μM, protein 2 μM; read-out: ΔTm
T14 construct: purchased in-house DSF (thermal shift) panel per Fedorov et al
Protocol: as §1

AAK1 = target: T15, AAK1 (Homo sapiens, UniProt Q2M2I8); conditions: inhibitor 10 μM, protein 2 μM
T15 construct: purchased in-house DSF (thermal shift) panel per Fedorov et al; IC50 follow-up at Reaction Biology Corp
Protocol: as §1, with “Filters for excitation and emission were set to 465 nm and 590 nm, respectively. The temperature was increased from 25 °C with 3 °C/min to a final temperature of 95 °C, while scanning, using the QuantStudio5 (Applied Biosystems, Waltham, MA, USA).” left out

MAPKAPK2 = target: T16, MAPKAPK2 (Homo sapiens, UniProt P49137); conditions: inhibitor 10 μM, protein 2 μM
T16 construct: purchased in-house DSF (thermal shift) panel per Fedorov et al; IC50 follow-up at Reaction Biology Corp
Protocol: as §1, with “Filters for excitation and emission were set to 465 nm and 590 nm, respectively. The temperature was increased from 25 °C with 3 °C/min to a final temperature of 95 °C, while scanning, using the QuantStudio5 (Applied Biosystems, Waltham, MA, USA).” left out

STK4 = target: T17, STK4 (Homo sapiens, UniProt Q13043); conditions: inhibitor 10 μM, protein 2 μM
T17 construct: purchased in-house DSF (thermal shift) panel per Fedorov et al; IC50 follow-up at Reaction Biology Corp
Protocol: as §1, with “Filters for excitation and emission were set to 465 nm and 590 nm, respectively. The temperature was increased from 25 °C with 3 °C/min to a final temperature of 95 °C, while scanning, using the QuantStudio5 (Applied Biosystems, Waltham, MA, USA).” left out

EPHA5 = target: T18, EPHA5 (Homo sapiens, UniProt P54756); conditions: inhibitor 10 μM, protein 2 μM
T18 construct: purchased in-house DSF (thermal shift) panel per Fedorov et al; IC50 follow-up at Reaction Biology Corp
Protocol: as §1, with “Filters for excitation and emission were set to 465 nm and 590 nm, respectively. The temperature was increased from 25 °C with 3 °C/min to a final temperature of 95 °C, while scanning, using the QuantStudio5 (Applied Biosystems, Waltham, MA, USA).” left out

CSNK1D = target: T19, CSNK1D (Homo sapiens, UniProt P48730); conditions: inhibitor 10 μM, protein 2 μM
T19 construct: purchased in-house DSF (thermal shift) panel per Fedorov et al
Protocol: as §1, with “Filters for excitation and emission were set to 465 nm and 590 nm, respectively. The temperature was increased from 25 °C with 3 °C/min to a final temperature of 95 °C, while scanning, using the QuantStudio5 (Applied Biosystems, Waltham, MA, USA).” left out

DYRK2 = target: T20, DYRK2 (Homo sapiens, UniProt Q92630); conditions: inhibitor 10 μM, protein 2 μM
T20 construct: purchased in-house DSF (thermal shift) panel per Fedorov et al
Protocol: as §1, with “Filters for excitation and emission were set to 465 nm and 590 nm, respectively. The temperature was increased from 25 °C with 3 °C/min to a final temperature of 95 °C, while scanning, using the QuantStudio5 (Applied Biosystems, Waltham, MA, USA).” left out

TTK1 = target: T21, TTK1 (Homo sapiens, UniProt P33981); conditions: inhibitor 10 μM, protein 2 μM
T21 construct: purchased in-house DSF (thermal shift) panel per Fedorov et al
Protocol: as §1, with “Filters for excitation and emission were set to 465 nm and 590 nm, respectively. The temperature was increased from 25 °C with 3 °C/min to a final temperature of 95 °C, while scanning, using the QuantStudio5 (Applied Biosystems, Waltham, MA, USA).” left out

TOPK = target: T22, TOPK (Homo sapiens, UniProt Q96KB5); conditions: inhibitor 10 μM, protein 2 μM
T22 construct: purchased in-house DSF (thermal shift) panel per Fedorov et al
Protocol: as §1, with “Filters for excitation and emission were set to 465 nm and 590 nm, respectively. The temperature was increased from 25 °C with 3 °C/min to a final temperature of 95 °C, while scanning, using the QuantStudio5 (Applied Biosystems, Waltham, MA, USA).” left out

CAMK2B = target: T23, CAMK2B (Homo sapiens, UniProt Q13554); conditions: inhibitor 10 μM, protein 2 μM
T23 construct: purchased in-house DSF (thermal shift) panel per Fedorov et al; IC50 follow-up at Reaction Biology Corp
Protocol: as §1, with “Filters for excitation and emission were set to 465 nm and 590 nm, respectively. The temperature was increased from 25 °C with 3 °C/min to a final temperature of 95 °C, while scanning, using the QuantStudio5 (Applied Biosystems, Waltham, MA, USA).” left out

MARK3 = target: T24, MARK3 (Homo sapiens, UniProt P27448); conditions: inhibitor 10 μM, protein 2 μM
T24 construct: purchased in-house DSF (thermal shift) panel per Fedorov et al
Protocol: as §1, with “Filters for excitation and emission were set to 465 nm and 590 nm, respectively. The temperature was increased from 25 °C with 3 °C/min to a final temperature of 95 °C, while scanning, using the QuantStudio5 (Applied Biosystems, Waltham, MA, USA).” left out

BRPF1 = target: T25, BRPF1 (Homo sapiens, UniProt P55201); conditions: inhibitor 10 μM, protein 2 μM
T25 construct: purchased in-house DSF (thermal shift) panel per Fedorov et al; IC50 follow-up at Reaction Biology Corp
Protocol: as §1, with “Filters for excitation and emission were set to 465 nm and 590 nm, respectively. The temperature was increased from 25 °C with 3 °C/min to a final temperature of 95 °C, while scanning, using the QuantStudio5 (Applied Biosystems, Waltham, MA, USA).” left out

STK17 = target: T26, STK17 (Homo sapiens, UniProt Q9UEE5); conditions: inhibitor 10 μM, protein 2 μM
T26 construct: purchased in-house DSF (thermal shift) panel per Fedorov et al
Protocol: as §1, with “Filters for excitation and emission were set to 465 nm and 590 nm, respectively. The temperature was increased from 25 °C with 3 °C/min to a final temperature of 95 °C, while scanning, using the QuantStudio5 (Applied Biosystems, Waltham, MA, USA).” left out

GSG2 = target: T27, GSG2 (Homo sapiens, UniProt Q8TF76); conditions: inhibitor 10 μM, protein 2 μM
T27 construct: purchased in-house DSF (thermal shift) panel per Fedorov et al
Protocol: as §1, with “Filters for excitation and emission were set to 465 nm and 590 nm, respectively. The temperature was increased from 25 °C with 3 °C/min to a final temperature of 95 °C, while scanning, using the QuantStudio5 (Applied Biosystems, Waltham, MA, USA).” left out

GSK3B = target: T28, GSK3B (Homo sapiens, UniProt P49841); conditions: inhibitor 10 μM, protein 2 μM
T28 construct: purchased in-house DSF (thermal shift) panel per Fedorov et al; IC50 follow-up at Reaction Biology Corp
Protocol: as §1, with “Filters for excitation and emission were set to 465 nm and 590 nm, respectively. The temperature was increased from 25 °C with 3 °C/min to a final temperature of 95 °C, while scanning, using the QuantStudio5 (Applied Biosystems, Waltham, MA, USA).” left out

T24 sequence (P27448 whole entry): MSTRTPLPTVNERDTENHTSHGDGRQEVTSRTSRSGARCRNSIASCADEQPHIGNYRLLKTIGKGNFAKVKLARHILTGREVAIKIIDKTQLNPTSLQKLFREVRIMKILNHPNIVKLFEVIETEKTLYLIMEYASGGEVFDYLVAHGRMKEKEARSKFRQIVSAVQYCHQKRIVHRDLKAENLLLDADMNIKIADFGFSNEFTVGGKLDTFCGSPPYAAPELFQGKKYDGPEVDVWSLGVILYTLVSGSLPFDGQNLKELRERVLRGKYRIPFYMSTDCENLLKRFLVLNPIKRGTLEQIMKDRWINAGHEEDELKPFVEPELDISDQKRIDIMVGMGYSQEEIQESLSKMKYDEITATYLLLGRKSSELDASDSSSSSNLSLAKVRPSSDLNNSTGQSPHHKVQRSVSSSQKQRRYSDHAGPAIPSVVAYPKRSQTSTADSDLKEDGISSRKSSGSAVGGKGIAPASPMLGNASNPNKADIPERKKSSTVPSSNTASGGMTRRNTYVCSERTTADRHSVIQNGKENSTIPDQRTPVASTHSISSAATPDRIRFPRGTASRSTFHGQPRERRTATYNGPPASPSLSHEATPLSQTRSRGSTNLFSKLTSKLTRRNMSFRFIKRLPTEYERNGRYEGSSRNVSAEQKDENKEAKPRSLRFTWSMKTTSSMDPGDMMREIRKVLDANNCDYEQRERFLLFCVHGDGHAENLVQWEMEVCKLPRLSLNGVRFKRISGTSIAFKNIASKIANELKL
T14 sequence (Q5VT25 whole entry): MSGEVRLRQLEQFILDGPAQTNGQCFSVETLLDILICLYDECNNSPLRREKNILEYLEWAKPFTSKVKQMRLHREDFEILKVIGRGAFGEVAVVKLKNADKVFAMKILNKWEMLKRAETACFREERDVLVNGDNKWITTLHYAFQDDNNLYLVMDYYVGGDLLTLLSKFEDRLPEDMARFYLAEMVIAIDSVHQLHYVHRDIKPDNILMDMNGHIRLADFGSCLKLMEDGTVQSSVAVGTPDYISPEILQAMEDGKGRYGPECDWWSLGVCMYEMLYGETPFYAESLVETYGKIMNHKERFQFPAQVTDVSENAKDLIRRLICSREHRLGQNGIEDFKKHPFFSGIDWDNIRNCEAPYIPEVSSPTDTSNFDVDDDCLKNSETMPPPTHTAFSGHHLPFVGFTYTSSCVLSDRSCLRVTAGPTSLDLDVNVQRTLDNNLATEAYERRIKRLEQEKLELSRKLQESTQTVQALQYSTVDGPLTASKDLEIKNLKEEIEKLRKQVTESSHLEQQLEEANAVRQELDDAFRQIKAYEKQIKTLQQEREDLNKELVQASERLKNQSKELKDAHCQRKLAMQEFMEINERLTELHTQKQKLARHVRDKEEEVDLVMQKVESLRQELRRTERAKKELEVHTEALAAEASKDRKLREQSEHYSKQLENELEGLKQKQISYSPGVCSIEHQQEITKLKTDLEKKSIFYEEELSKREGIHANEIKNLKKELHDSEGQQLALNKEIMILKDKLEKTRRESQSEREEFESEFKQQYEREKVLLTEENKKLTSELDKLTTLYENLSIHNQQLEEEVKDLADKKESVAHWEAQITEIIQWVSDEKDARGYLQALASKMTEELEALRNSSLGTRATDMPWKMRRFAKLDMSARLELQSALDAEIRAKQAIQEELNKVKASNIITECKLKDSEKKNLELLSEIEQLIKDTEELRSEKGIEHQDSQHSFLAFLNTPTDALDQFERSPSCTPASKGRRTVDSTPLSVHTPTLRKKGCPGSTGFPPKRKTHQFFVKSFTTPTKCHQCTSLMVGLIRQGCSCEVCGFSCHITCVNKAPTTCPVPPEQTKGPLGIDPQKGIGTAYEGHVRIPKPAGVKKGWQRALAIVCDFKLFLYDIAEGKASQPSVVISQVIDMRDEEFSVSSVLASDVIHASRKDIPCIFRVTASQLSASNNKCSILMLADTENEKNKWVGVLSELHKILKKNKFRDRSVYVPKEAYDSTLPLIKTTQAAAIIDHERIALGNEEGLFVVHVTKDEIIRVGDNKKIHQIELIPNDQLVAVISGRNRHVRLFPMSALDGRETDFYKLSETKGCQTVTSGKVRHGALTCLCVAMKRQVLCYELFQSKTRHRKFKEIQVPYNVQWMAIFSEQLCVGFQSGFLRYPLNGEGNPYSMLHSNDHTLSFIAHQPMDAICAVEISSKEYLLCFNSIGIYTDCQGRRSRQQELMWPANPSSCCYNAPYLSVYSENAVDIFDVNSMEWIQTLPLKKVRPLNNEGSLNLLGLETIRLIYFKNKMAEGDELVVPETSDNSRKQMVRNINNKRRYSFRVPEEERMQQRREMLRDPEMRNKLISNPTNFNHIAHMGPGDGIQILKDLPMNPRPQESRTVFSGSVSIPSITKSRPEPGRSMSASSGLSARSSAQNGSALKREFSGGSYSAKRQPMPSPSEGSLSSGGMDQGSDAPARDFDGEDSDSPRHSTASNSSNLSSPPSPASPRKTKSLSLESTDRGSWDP
T5 sequence (Q96RR4 whole entry): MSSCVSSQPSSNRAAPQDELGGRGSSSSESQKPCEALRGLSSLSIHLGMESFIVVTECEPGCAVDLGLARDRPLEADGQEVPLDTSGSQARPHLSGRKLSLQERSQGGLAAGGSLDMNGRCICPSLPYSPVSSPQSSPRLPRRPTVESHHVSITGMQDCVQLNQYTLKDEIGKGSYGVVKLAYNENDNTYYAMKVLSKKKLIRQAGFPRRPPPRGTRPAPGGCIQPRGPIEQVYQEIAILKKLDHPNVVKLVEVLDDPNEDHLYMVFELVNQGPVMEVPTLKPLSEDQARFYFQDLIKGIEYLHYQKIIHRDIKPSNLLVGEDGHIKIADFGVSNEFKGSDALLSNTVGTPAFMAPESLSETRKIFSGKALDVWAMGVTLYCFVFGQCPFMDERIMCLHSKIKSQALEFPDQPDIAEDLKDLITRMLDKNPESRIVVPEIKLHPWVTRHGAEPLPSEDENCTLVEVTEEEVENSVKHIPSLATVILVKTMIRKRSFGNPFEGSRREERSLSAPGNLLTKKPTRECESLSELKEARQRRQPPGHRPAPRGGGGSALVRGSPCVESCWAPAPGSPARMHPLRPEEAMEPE
T23 sequence (Q13554 whole entry): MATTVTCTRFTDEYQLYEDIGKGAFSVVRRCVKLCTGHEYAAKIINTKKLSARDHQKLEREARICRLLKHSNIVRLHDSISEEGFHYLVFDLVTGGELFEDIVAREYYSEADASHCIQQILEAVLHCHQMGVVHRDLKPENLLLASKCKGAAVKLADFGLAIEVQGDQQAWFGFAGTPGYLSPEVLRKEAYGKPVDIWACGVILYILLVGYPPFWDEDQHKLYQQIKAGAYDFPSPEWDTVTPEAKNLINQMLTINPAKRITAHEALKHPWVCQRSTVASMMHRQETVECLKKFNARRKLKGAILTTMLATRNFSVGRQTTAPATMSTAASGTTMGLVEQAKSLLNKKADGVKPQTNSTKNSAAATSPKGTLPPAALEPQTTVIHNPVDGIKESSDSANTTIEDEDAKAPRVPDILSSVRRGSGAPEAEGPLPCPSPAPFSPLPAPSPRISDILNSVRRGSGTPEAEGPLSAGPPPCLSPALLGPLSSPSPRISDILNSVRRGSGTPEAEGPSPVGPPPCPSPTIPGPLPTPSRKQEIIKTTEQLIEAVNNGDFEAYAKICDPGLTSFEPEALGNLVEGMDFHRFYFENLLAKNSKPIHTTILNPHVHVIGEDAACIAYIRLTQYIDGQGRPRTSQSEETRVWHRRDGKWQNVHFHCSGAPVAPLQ
T10 sequence (P51955 whole entry): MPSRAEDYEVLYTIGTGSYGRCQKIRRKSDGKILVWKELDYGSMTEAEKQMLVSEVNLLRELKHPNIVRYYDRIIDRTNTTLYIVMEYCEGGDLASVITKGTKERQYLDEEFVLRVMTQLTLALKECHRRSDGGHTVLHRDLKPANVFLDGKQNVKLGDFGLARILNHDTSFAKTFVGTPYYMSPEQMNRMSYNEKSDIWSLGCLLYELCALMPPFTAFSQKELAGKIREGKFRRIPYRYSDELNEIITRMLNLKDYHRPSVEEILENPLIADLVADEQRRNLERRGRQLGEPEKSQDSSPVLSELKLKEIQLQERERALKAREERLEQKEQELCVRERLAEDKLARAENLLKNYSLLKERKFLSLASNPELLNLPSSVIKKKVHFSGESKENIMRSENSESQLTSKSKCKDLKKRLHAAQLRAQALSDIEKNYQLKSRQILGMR
T7 sequence (O95747 whole entry): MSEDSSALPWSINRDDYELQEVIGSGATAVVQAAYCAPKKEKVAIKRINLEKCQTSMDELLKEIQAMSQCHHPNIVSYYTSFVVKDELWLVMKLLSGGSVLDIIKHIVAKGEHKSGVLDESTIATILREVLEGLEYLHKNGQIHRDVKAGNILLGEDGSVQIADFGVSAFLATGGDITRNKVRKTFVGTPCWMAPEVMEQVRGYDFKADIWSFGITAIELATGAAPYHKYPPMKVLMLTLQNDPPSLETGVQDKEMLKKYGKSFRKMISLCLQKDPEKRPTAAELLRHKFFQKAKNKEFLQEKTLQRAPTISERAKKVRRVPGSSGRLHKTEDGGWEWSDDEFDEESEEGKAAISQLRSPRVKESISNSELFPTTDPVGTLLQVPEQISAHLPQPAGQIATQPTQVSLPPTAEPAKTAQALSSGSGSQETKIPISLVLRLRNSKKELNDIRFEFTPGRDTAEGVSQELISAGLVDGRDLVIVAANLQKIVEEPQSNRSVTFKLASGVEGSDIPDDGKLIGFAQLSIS
T22 sequence (Q96KB5 whole entry): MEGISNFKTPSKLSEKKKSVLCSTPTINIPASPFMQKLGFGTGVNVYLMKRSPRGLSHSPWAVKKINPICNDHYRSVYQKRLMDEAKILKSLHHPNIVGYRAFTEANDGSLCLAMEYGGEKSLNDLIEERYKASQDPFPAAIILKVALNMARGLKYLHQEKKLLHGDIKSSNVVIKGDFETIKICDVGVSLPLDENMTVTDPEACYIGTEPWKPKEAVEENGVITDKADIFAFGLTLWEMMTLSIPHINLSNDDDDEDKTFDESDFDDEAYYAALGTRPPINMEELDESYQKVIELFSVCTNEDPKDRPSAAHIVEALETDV

- ΔTm at 10 µM (SLK): 1.9 °C
- ΔTm at 10 µM (DCAMKL1): 0.2 °C
- ΔTm at 10 µM (MAPK6): 0.2 °C
- ΔTm at 10 µM (PAK1): -0.5 °C
- ΔTm at 10 µM (CAMKK2): 0.6 °C
- ΔTm at 10 µM (RPS6K5): 1.5 °C
- ΔTm at 10 µM (OSR1): 0.4 °C
- ΔTm at 10 µM (EPHB3): -0.9 °C
- ΔTm at 10 µM (PLK4): 0.2 °C
- ΔTm at 10 µM (NEK2): 0.1 °C
- ΔTm at 10 µM (CAMK4): 0.1 °C
- ΔTm at 10 µM (STK39): 0.6 °C
- ΔTm at 10 µM (MAPK13): -0.6 °C
- ΔTm at 10 µM (CDC42BPA): 0.3 °C
- ΔTm at 10 µM (AAK1): -0.2 °C
- ΔTm at 10 µM (MAPKAPK2): -0.3 °C
- ΔTm at 10 µM (STK4): -0.5 °C
- ΔTm at 10 µM (EPHA5): 0.5 °C
- ΔTm at 10 µM (CSNK1D): 0.2 °C
- ΔTm at 10 µM (DYRK2): 0.1 °C
- ΔTm at 10 µM (TTK1): 1.5 °C
- ΔTm at 10 µM (TOPK): -0.5 °C
- ΔTm at 10 µM (CAMK2B): -2.3 °C
- ΔTm at 10 µM (MARK3): 0.9 °C
- ΔTm at 10 µM (BRPF1): 0.9 °C
- ΔTm at 10 µM (STK17): -0.7 °C
- ΔTm at 10 µM (GSG2): 0.1 °C
- ΔTm at 10 µM (GSK3B): 0.4 °C
SMILES: CCc1cnc(Nc2nc(Cl)ccc2[N+](=O)[O-])nc1N1CCN(Cc2nc3cc(C(F)(F)F)ccc3[nH]2)CC1 [Compound 2]
